Results as given in ChEMBL document CHEMBL5223154, “9-Demethoxy-medicarpin: A potential bone health supplement for the management of protein deficiency-induced bone loss in growing rats” (2023).
Active and inactive are the calls of the source. The rule behind the calls is not given here.

How the values were obtained:
[1] = system: Rattus norvegicus; assay: Effect on protein deficiency diet induced bone loss in Sprague-Dawley rat assessed as change in femur length at 1 mg, po supplemented with protein deficient diet for one month followed by compound treatment and measured after 4 weeks; type: functional
[2] = system: Rattus norvegicus; assay: Effect on protein deficiency diet induced bone loss in Sprague-Dawley rat assessed as change in tibia length at 10 mg, po supplemented with protein deficient diet for one month followed by compound treatment and measured after 4 weeks; type: functional
[3] = system: Rattus norvegicus; assay: Effect on protein deficiency diet induced bone loss in Sprague-Dawley rat assessed as change in serum albumin level at 10 mg, po supplemented with protein deficient diet for one month followed by compound treatment and measured after 4 weeks; type: functional
[4] = system: Rattus norvegicus; assay: Effect on protein deficiency diet induced bone loss in Sprague-Dawley rat assessed as change in serum alkaline phosphatase level at 1 mg, po supplemented with protein deficient diet for one month followed by compound treatment and measured after 4 weeks; type: functional
[5] = system: Rattus norvegicus; assay: Effect on protein deficiency diet induced bone loss in Sprague-Dawley rat assessed as change in serum albumin level at 1 mg, po supplemented with protein deficient diet for one month followed by compound treatment and measured after 4 weeks; type: functional
[6] = system: Mesenchymal stem cells; assay: Induction of osteoblast differentiation in bone marrow mesenchymal stem cells isolated from Sprague-Dawley rat model of protein deficiency diet induced bone loss assessed as increase in mineralized nodule formation at 1 to 10 mg, po supplemented with protein deficient diet for one month followed by compound treatment and measured after 4 weeks by Alizarin Red-S staining based analysis; type: functional, organism-based; details: dose 1-10 mg
[7] = system: Rattus norvegicus; assay: Effect on protein deficiency diet induced bone loss in Sprague-Dawley rat assessed as change in serum alkaline phosphatase level at 10 mg, po supplemented with protein deficient diet for one month followed by compound treatment and measured after 4 weeks; type: functional
[8] = system: Rattus norvegicus; assay: Effect on protein deficiency diet induced bone loss in Sprague-Dawley rat assessed as increase in bone mineral density at TFSP region of tibia at 1 mg, po supplemented with protein deficient diet for one month followed by compound treatment and measured after 4 weeks; type: functional, organism-based
[9] = system: Rattus norvegicus; assay: Effect on protein deficiency diet induced bone loss in Sprague-Dawley rat assessed as increase in L2 vertebral bone mineral density at 1 to 10 mg, po supplemented with protein deficient diet for one month followed by compound treatment and measured after 4 weeks; type: functional, organism-based; details: dose 1-10 mg
[10] = system: Rattus norvegicus; assay: Effect on protein deficiency diet induced bone loss in Sprague-Dawley rat assessed as change in serum creatinine level at 1 mg, po supplemented with protein deficient diet for one month followed by compound treatment and measured after 4 weeks; type: functional
[11] = system: Rattus norvegicus; assay: Effect on protein deficiency diet induced bone loss in Sprague-Dawley rat assessed as change in serum total protein level at 1 mg, po supplemented with protein deficient diet for one month followed by compound treatment and measured after 4 weeks; type: functional
[12] = system: Rattus norvegicus; assay: Effect on protein deficiency diet induced bone loss in Sprague-Dawley rat assessed as change in serum total protein level at 10 mg, po supplemented with protein deficient diet for one month followed by compound treatment and measured after 4 weeks; type: functional
[13] = system: Rattus norvegicus; assay: Effect on protein deficiency diet induced bone loss in Sprague-Dawley rat assessed as change in serum TGA level at 1 mg, po supplemented with protein deficient diet for one month followed by compound treatment and measured after 4 weeks; type: functional
[14] = system: Rattus norvegicus; assay: Effect on protein deficiency diet induced bone loss in Sprague-Dawley rat assessed as change in serum urea level at 1 mg, po supplemented with protein deficient diet for one month followed by compound treatment and measured after 4 weeks; type: functional
[15] = system: Rattus norvegicus; assay: Effect on protein deficiency diet induced bone loss in Sprague-Dawley rat assessed as increase in L3 vertebral bone mineral density at 1 to 10 mg, po supplemented with protein deficient diet for one month followed by compound treatment and measured after 4 weeks; type: functional, organism-based; details: dose 1-10 mg
[16] = system: Rattus norvegicus; assay: Effect on protein deficiency diet induced bone loss in Sprague-Dawley rat assessed as increase in global tibial bone mineral density at 10 mg, po supplemented with protein deficient diet for one month followed by compound treatment and measured after 4 weeks; type: functional, organism-based
[17] = system: Rattus norvegicus; assay: Effect on protein deficiency diet induced bone loss in Sprague-Dawley rat assessed as change in serum creatinine level at 10 mg, po supplemented with protein deficient diet for one month followed by compound treatment and measured after 4 weeks; type: functional
[18] = system: Rattus norvegicus; assay: Effect on protein deficiency diet induced bone loss in Sprague-Dawley rat assessed as increase in bone mineral density at midshaft of femur at 10 mg, po supplemented with protein deficient diet for one month followed by compound treatment and measured after 4 weeks; type: functional, organism-based
[19] = system: Rattus norvegicus; assay: Effect on protein deficiency diet induced bone loss in Sprague-Dawley rat assessed as increase in global tibial bone mineral density at 1 mg, po supplemented with protein deficient diet for one month followed by compound treatment and measured after 4 weeks; type: functional, organism-based
[20] = system: Rattus norvegicus; assay: Effect on protein deficiency diet induced bone loss in Sprague-Dawley rat assessed as change in phosphate ion level in serum at 1 mg, po supplemented with protein deficient diet for one month followed by compound treatment and measured after 4 weeks; type: functional
[21] = system: Rattus norvegicus; assay: Effect on protein deficiency diet induced bone loss in Sprague-Dawley rat assessed as change in body weight at 10 mg, po supplemented with protein deficient diet for one month followed by compound treatment and measured twice a week for 4 weeks; type: functional
[22] = system: Rattus norvegicus; assay: Effect on protein deficiency diet induced bone loss in Sprague-Dawley rat assessed as change in serum TGA level at 10 mg, po supplemented with protein deficient diet for one month followed by compound treatment and measured after 4 weeks; type: functional
[23] = system: Rattus norvegicus; assay: Effect on protein deficiency diet induced bone loss in Sprague-Dawley rat assessed as increase in bone mineral density at proximal head of tibia at 10 mg, po supplemented with protein deficient diet for one month followed by compound treatment and […]; type: functional, organism-based
[24] = system: Rattus norvegicus; assay: Effect on protein deficiency diet induced bone loss in Sprague-Dawley rat assessed as increase in global femur bone mineral density at 10 mg, po supplemented with protein deficient diet for one month followed by compound treatment and measured after 4 weeks; type: functional, organism-based
[25] = system: Rattus norvegicus; assay: Effect on protein deficiency diet induced bone loss in Sprague-Dawley rat assessed as increase in L1 vertebral bone mineral density at 1 to 10 mg, po supplemented with protein deficient diet for one month followed by compound treatment and measured after 4 weeks; type: functional, organism-based; details: dose 1-10 mg
[26] = system: Rattus norvegicus; assay: Effect on protein deficiency diet induced bone loss in Sprague-Dawley rat assessed as increase in bone mineral density at TFSP region of tibia at 10 mg, po supplemented with protein deficient diet for one month followed by compound treatment and measured after 4 weeks; type: functional, organism-based
[27] = system: Rattus norvegicus; assay: Effect on protein deficiency diet induced bone loss in Sprague-Dawley rat assessed as increase in bone mineral density at neck of femur at 10 mg, po supplemented with protein deficient diet for one month followed by compound treatment and measured after 4 weeks; type: functional, organism-based
[28] = system: Rattus norvegicus; assay: Effect on protein deficiency diet induced bone loss in Sprague-Dawley rat assessed as change in phosphate ion level in serum at 10 mg, po supplemented with protein deficient diet for one month followed by compound treatment and measured after 4 weeks; type: functional
[29] = system: Rattus norvegicus; assay: Effect on protein deficiency diet induced bone loss in Sprague-Dawley rat assessed as change in femur length at 10 mg, po supplemented with protein deficient diet for one month followed by compound treatment and measured after 4 weeks; type: functional
[30] = system: Rattus norvegicus; assay: Effect on protein deficiency diet induced bone loss in Sprague-Dawley rat assessed as change in tibia length at 1 mg, po supplemented with protein deficient diet for one month followed by compound treatment and measured after 4 weeks; type: functional
[31] = system: Rattus norvegicus; assay: Effect on protein deficiency diet induced bone loss in Sprague-Dawley rat assessed as change in serum urea level at 10 mg, po supplemented with protein deficient diet for one month followed by compound treatment and measured after 4 weeks; type: functional
[32] = system: Rattus norvegicus; assay: Effect on protein deficiency diet induced bone loss in Sprague-Dawley rat assessed as increase in bone mineral density at proximal head of tibia at 1 mg, po supplemented with protein deficient diet for one month followed by compound treatment and measured after 4 weeks; type: functional, organism-based
[33] = system: Rattus norvegicus; assay: Effect on protein deficiency diet induced bone loss in Sprague-Dawley rat assessed as change in body weight at 1 mg, po supplemented with protein deficient diet for one month followed by compound treatment and measured twice a week for 4 weeks; type: functional
[34] = system: Rattus norvegicus; assay: Effect on protein deficiency diet induced bone loss in Sprague-Dawley rat assessed as increase in L4 vertebral bone mineral density at 1 to 10 mg, po supplemented with protein deficient diet for one month followed by compound treatment and measured after 4 weeks; type: functional, organism-based; details: dose 1-10 mg
[35] = system: Rattus norvegicus; assay: Effect on protein deficiency diet induced bone loss in Sprague-Dawley rat assessed as increase in global vertebral bone mineral density at 1 to 10 mg, po supplemented with protein deficient diet for one month followed by compound treatment and measured after 4 weeks; type: functional, organism-based; details: dose 1-10 mg

In the case of `Oc1ccc2c(c1)OCC1c3ccccc3OC21` (stereo not given), the Activity [1] is reported as 2.25 cm, the Activity [2] is reported as 2.8 cm and the Activity [3] is reported as 1.45 g/dL. The Activity [4] was 377.2 IU/L, the Activity [5] was 1.11 g/dL and the Activity [6] was “Active”. For the same molecule, the Activity [7] was 512.55 IU/L, the Activity [8] was “inactive” and the Activity [9] was “Active”. For the same molecule, the Activity [10] was 0.2633 mg/dL, the Activity [11] was 48.9 g/L and the Activity [12] was 64.7 g/L. The Activity [13] was 17.8333 mg/dL, the Activity [14] was 11.3 mmol/L and the Activity [15] was “Active”. The Activity [16] was “Active”, the Activity [17] was 0.2567 mg/dL and the Activity [18] was “Active”. For the same molecule, the Activity [19] was “inactive”, the Activity [20] was 4.346 mg/dL and the Activity [21] was 79.7 g. For the same molecule, the Activity [22] was 23.9333 mg/dL, the Activity [23] was “Active” and the Activity [24] was “Active”. For the same molecule, the Activity [25] was “Active”, the Activity [26] was “Active” and the Activity [27] was “Active”. It also gave an Activity [28] of 7.576 mg/dL, an Activity [29] of 2.39 cm and an Activity [30] of 2.647 cm. The Activity [31] was 14.1333 mmol/L, the Activity [32] was “inactive” and the Activity [33] was 74.03 g. The Activity [34] was “Active” and the Activity [35] was “Active”.
